What was measured:
AR [1] = assay: Mammalian two-hybrid assay hRad9 / AR in PC-3 cells; assay type: cell-based, human
Method: PC-3, CWR22R, and LNCaP cell lines were maintained in […] supplemented with 10% fetal calf serum (FCS). Transient transfection for luciferase assays was carried out in 24-well plates (5×10^4 cells per well) using SuperFect as described previously (Lin, H. K., et al., Embo J 21:4037-48 (2002)). DNA mixtures in transfection assay were indicated in each figure. The total amount of transfected DNA was kept constant (1 μg) by adding the corresponding amounts of empty expression plasmids. After transfection, cells were cultured in […] supplemented with 5% charcoal-stripped FCS in the presence or absence of 10 nM dihydrotestosterone (DHT) for 18 h. Luciferase assays were performed as previously described (Yang, L., et al., J Biol Chem 278:16820-7 (2003)). In Western blotting assays, CWR22R or LNCaP cells were transfected by electroporation using 5×10^6 cells/0.4 ml of RPMI medium containing 2% FCS plus 9 μg of the indicated plasmids. 1 μg of EGFP expression vector was used for transfection efficiency. Electroporation was performed at 250 V and 950 μF using Gene Pulser II (Bio-Rad)

MAPK = details: cited from earlier work
AR [2] = assay: TSA effect on AR transactivation, reporter assay in COS-1 cells; assay type: cell-based, human; details: 1 nM TSA
Method: H1299 and COS-1 cells were maintained in Dulbecco's modified Eagle's medium (DMEM) (Life Technologies, Inc.) supplemented with 10% heat inactivated fetal bovine serum (FBS). LNCap cells were maintained in RPMI 1640 supplemented with […]. All media contain 100 units penicillin, 100 μg/ml streptomycin and 2 mM L-glutamine. Cells were seeded to a density of 50-60% confluency for transfection. In transfections where H1299 and COS-1 cells were used, the calcium phosphate precipitation method was used as described (Pan H J, et al. 1999. Endocrine 11:321-327) unless otherwise noted. […] In other reporter gene assays, where ligand treatment was required, cell culture media were changed to DMEM containing 10% charcoal-dextran-stripped FBS (CD-FBS) 2 h before transfection. After 16-18 h transfection, cells were treated with medium containing either vehicle or ligands for another 20-24 h and then cells were harvested. With LNCap cells transfection, the cells were treated with fresh RPMI 1640 containing 10% CD-FBS before transfection with SuperFect performed according to the manufacturer's protocol (Qiagen). After transfection, cells were allowed to recover in fresh RPMI 1640 containing 10% CD-FBS for 8-12 h, and then treated with either vehicle or ligands for another 20-24 h before harvesting. Each experiment was repeated at least three times.

COS-1 and H1299 = assay: TSA toxicity in transfected cells
[3] = system: MAPK (GAL4-Elk1 transactivation); assay: GAL4-Elk1 reporter gene assay (MAPK activation) in MCF7 cells; assay type: cell-based, human
Method: Cells were plated in 96-well plates and plasmids at 0.5 μg per well were transfected into cells using SuperFect (Qiagen). The medium was changed 2 h after transfection and cells were cultured in the medium containing 10% CDS-FBS or 0.2% HI-FBS for 16 h, followed by treatment with 50 ng/ml EGF, 100 ng/ml IGF-1,100 ng/ml HRG-α 0.1 nM E2, or 1 nM DHT for another 16 h. Cells were then harvested and the luciferase activity was analyzed using Dual-Luciferase Reporter Assay System (Promega). 5 ng pRL-TK per well was used as internal control.

[4] = system: AR expression in AR^+/+ MCF7 cells; assay: AR siRNA transfection of AR+/+ MCF7 cells: Ki67 immunostaining, Ki67 and c-myc mRNA, S-phase entry; assay type: cell-based, human
Method: All animal experimentation was conducted in accordance with accepted standards of humane animal care. Tissues were fixed in 4% paraformaldehyde for 24 h at 4° C. Paraffin-embedded tissues were sectioned (5-7 μm) onto Probe-On Plus charged slides (Fisher Scientific, Pittsburgh, Pa.). Fresh mammary gland tissues were frozen in liquid nitrogen and stored at −80° C. before RNA extraction. 3 μg of total RNA was reverse-transcribed (RT) and subjected to real-time PCR using iCycle (Bio-Rad). Primer sequences were designed by Beacon Designer II software (Bio-Rad) and the formula used were described previously (Bieche et al. 2001). β-Actin was used as an internal control.
For IHC, sections were heated at 55° C. at least 2 h, deparaffinized in xylene, rehydrated, and washed in Tris-buffered saline (TBS)/pH 8.0. For antigen retrieval, slides were microwaved in 0.01 M sodium citrate/pH 6.0, and immersed with 1% hydrogen peroxide in methanol for 30 min, then blocked with 20% normal goat serum in TBS for 60 min. After washing with PBS, sections were incubated for 90 min in different antibody of diluted 1:200 to 1:500 in TBS containing 1% bovine serum albumin (BSA), followed by goat anti-rabbit biotinylated secondary antibody diluted 1:300 in TBS containing 1% BSA. Then sections were incubated with ABC solution for 30 min, followed by development with DAB peroxidase substrate kit (Vector Laboratories) for 5 min. Slides were counterstained with hematoxylin for 30 sec, then dehydrated, cleaned in xylene, and mounted. Primary antibody was replaced with normal rabbit IgG or 1% BSA in TBS for negative controls. For BrdU labeling, BrdU reagent and BrdU staining kit were purchased from Zymed Laboratories.
A small interfering RNA was expressed in mammalian cells by transfection of a DNA-based vector BS/U6 (Sui et al. 2002) containing a homologous sequence ([…]-TAGCTAC SEQ ID NO:9), a 6-bp spacer (CTCGAG), an inverted homologous sequence ([…] SEQ ID NO:10), and 5 Ts, at the transcription initiation site of the U6 promoter. See SEQ ID NO. 11 and 12 for fall AR siRNA.

CWR22R cells = assay: MTT growth assay of stably transfected CWR22R cells; assay type: cell-based, human; details: CWR22R-S9A-GSK3β cells, 10 nM DHT, 2 μg/ml doxycycline, 5 days
Method: The MTT assay is a quantitative colorimetric assay for mammalian cell survival and proliferation. The 5×10^3 CWR22R cells were seeded in 24-well plates and incubated in RPMI medium 1640 with 5% CS-FCS for 48 h. Cells were then treated with ethanol, 10 nMDHT, and/or 2 μg/ml doxycycline for another 5 days. Then 200 μl of MTT (5 mg/ml; Sigma) was added into the each well with 1 ml of medium for 3 h at 37° C. After incubation, 2 ml of 0.04 M HCl in isopropyl alcohol was added into each well. After 5-min incubation at room temperature, the absorbance was read at a test wavelength of 570 nm.

AR [5] = assay: Luc reporter assay in stably transfected CWR22R cells; assay type: cell-based, human; details: CWR22R-S9A-GSK3β cells, doxycycline induction
Method: (§1) COS-1 and PC-3 cells were maintained in early to mid-log phase in DMEM medium, supplemented with 10% fetal bovine serum (FBS), 50 units/ml penicillin and 50 μg/ml streptormnycin in incubators with humidified air and 5% carbon dioxide at 37° C. LNCaP cells were maintained in RPMI (GIBCO/BRL) medium. Twenty-four h prior to transfection, cells washed with Hanks' buffered saline solution, trypsinized, and seeded to be a density of 40-60% confluence for transfection. Cells in 12 well plates were refed with fresh medium 2 hours before transfection and transfected according to the “SuperFect Transfection” instructions (QIAGEN). After 2-3 h incubation, cells were treated with medium supplemented with charcoal-dextran treated FBS containing either ethanol or ligands. Cells were further incubated at 37° C. for 24 h, washed with PBS, and harvested.
The S9A-GSK3β gene was inserted into pBig vector with hygromycin resistance. The S9A-GSK3β-transfected CWR22R cells were selected and maintained in RPMI medium containing 50 μg/ml hygromycin (GIBCO).

AR [6] = assay: AR transactivation luciferase assay in COS-1 cells with GSK3β; assay type: cell-based, human; details: ARE4-Luc, 10 nM DHT
Method: as §1
Target sequence in this assay (P10275 with tags, fused parts or gaps DEL79-80/DUP473-473): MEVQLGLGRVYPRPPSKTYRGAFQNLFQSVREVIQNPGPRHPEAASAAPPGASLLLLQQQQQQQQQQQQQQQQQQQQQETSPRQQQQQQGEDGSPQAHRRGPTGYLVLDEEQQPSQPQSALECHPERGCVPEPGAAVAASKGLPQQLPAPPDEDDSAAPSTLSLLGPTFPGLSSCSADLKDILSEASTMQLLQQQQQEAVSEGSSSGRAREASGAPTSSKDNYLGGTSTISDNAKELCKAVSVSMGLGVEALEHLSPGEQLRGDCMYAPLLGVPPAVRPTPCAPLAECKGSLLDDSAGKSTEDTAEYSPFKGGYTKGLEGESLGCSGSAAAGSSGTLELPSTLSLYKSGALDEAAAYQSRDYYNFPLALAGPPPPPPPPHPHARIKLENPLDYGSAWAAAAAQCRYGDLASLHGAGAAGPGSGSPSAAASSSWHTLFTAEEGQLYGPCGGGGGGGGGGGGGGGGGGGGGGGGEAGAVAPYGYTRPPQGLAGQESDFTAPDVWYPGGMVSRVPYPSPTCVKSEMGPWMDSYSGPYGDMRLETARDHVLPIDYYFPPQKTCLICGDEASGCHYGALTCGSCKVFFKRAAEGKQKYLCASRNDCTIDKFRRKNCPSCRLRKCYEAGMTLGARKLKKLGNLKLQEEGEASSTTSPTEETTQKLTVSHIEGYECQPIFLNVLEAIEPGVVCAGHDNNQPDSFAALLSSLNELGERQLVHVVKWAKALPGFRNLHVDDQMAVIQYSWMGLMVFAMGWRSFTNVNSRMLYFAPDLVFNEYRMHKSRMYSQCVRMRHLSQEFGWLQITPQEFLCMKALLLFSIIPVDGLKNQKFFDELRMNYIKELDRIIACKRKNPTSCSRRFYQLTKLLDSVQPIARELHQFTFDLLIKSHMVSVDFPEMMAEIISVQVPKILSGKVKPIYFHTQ

[7] = AR siRNA-transfected AR^+/+ MCF7 cells

Compound: CC(C)(O)C(=O)Nc1ccc([N+](=O)[O-])c(C(F)(F)F)c1 [HF, hydroxyflutamide, reference compound]
- androgen-induced interaction between AR and hRad9 (AR [1]; 10^−5 M HF, 10^−8 M DHT): inhibited

Compound: COc1cccc(-c2cc(=O)c3ccccc3o2)c1N [PD098059]
- Her2/Neu-, H-Ras- or C-myc-initiated mammary tumor growth (MAPK; Amundadottir and Leder 1998): inhibit
- mammary gland alveolar morphogenesis (MAPK; Niemann et al. 1998): inhibit

Compound: CC(/C=C/C(=O)NO)=C\[C@@H](C)C(=O)c1ccc(N(C)C)cc1 [TSA, trichostatin A]
- DHT-induced AR transactivation (AR [2]): enhanced
- TSA concentration causing significant cell death (COS-1 and H1299): ≥ 10 nM
- toxic effect (COS-1 and H1299; 1 nM TSA): no obvious toxic effect

Compound: N#CC(=C(/N)Sc1ccccc1N)/C(C#N)=C(\N)Sc1ccccc1N [U0126, reference compound]
- AR-activated GAL4-Elk1 activity ([3]; AR-FL-activated, pG5-luc reporter): diminished

Compound: AR siRNA: small interfering RNA against AR expressed from the DNA-based vector BS/U6 (GGGCCCCTGGATGGATAGCTACCTCGAGGTAGCTATCCATCCAGGGGCC)
- Ki67 immunostaining [4, 7]: lower degree
- mRNA level of Ki67 reduced by [4, 7]: 42%
- mRNA level of c-myc reduced by [4, 7]: 81%
- number of cells entering S-phase of the cell cycle ([4]; AR^+/+ MCF7 cells, IGF-I/EGF/HRG-α): diminish
- IGF-I/EGF/HRG-α-induced MAPK activation ([3]; AR^+/+ MCF7 cells transfected with AR siRNA): diminish

Compound: PKKFRSLFFGSI [GAL4-FXXLF fusion peptides]
- interaction with AR (AR [1]; 10 nM DHT): Androgen-dependent interactions were demonstrated

Compound: S9A-GSK3β: constitutively active form of GSK3β
- cell growth (MTT assay) (CWR22R cells): obvious growth arrest
- AR transactivation reduced by (AR [5]): 30%
- effect on AR activity (AR [6]): strongly inhibited

From patent publication US20080050387A1, “Non-Androgen Dependent Roles for Androgen Receptor and Non-Androgen Related Inhibitors of Androgen Receptor” (priority 2003, published 2008)
